Measurements reported in US20250171556A1, “MULTISPECIFIC ANTIBODIES FOR TREATING CD47-ASSOCIATED DISEASES” (Virtuoso BINco, Inc., priority 2021, published 2025).

Legend:
DLD-1 tumor cells = test: DLD-1 colorectal cancer xenograft model; assay type: in vivo, mouse; conditions: 5 doses, irinotecan 30 mg/kg ip twice per week
Procedure: DLD-1 tumor cells were cultured in RPMI 1640 medium supplemented with 10% FBS at 37° C. in an atmosphere of 5% CO2 in air. Female Balb/c nude mice (Shanghai Lingchang Laboratory Animal Technology Co., Ltd.) of 6-8 weeks in age were inoculated subcutaneously with 5×10^6 cells in 0.1 mL PBS for tumor development. Once the average tumor volume reached approximately 150-200 mm^3, the animals were randomized to 6 animals per group and started treatment. Oxaliplatin and 5-fluorouracil (5-FU) were administered through intraperitoneal injection three times per week at a dose of 8 mg/kg and 35 mg/kg, respectively. A total of 4 doses of oxaliplatin and 5 doses of 5-FU were given. Irinotecan was administered through intraperitoneal injection twice per week at a dose of 30 mg/kg for a total of 6 doses. CD47×EpCAM_v5 bispecific antibody was administered through bolus tail vein injection at 20 mg/kg weekly for a total of 5 doses. For the combination groups, the route and dosing schedule were the same as in the single agent treatment groups. Tumor volume was measured twice weekly.
DLD-1 xenograft model was established as described in Example 13. Treatment was initiated once the average tumor volume reached approximately 150-200 mm^3. Irinotecan was administered through intraperitoneal injection twice per week at a dose of 30 mg/kg for a total of 5 doses. […]

Hep3B2.1-7 tumor cells = test: Hep3B2.1-7 hepatocellular carcinoma xenograft model; assay type: in vivo, mouse; conditions: CD47×EpCAM_v5 20 mg/kg iv weekly, 4 doses, irinotecan 15 mg/kg ip twice per week
Procedure: Hep3B2.1-7 tumor cells were cultured in EMEM medium supplemented with 10% FBS at 37° C. in an atmosphere containing 5% CO2 in air. Female Balb/c nude mice (Shanghai Lingchang Laboratory Animal Technology Co., Ltd.) of 6-8 weeks in age were inoculated subcutaneously with 8×10^6 cells in 0.1 mL of PBS for tumor development. Once the average tumor volume reached approximately 150-200 mm^3, the animals were randomized to 6 animals per group and started treatment. Irinotecan was administered through intraperitoneal injection twice per week at a dose of 15 mg/kg for a total of 4 doses. CD47×EpCAM_v5 bispecific antibody was administered through bolus tail vein injection at 20 mg/kg weekly for a total of 4 doses. Combination groups followed the same dosing schedule and route of administration as their corresponding monotherapy groups. Tumor volume was measured twice weekly.

**Q.** For CCc1c2c(nc3ccc(OC(=O)N4CCC(N5CCCCC5)CC4)cc13)-c1cc3c(c(=O)n1C2)COC(=O)[C@]3(O)CC [irinotecan, reference compound], which “Tumor growth in DLD-1 model, single agent (Example 13)” value (DLD-1 tumor cells; CD47×EpCAM_v5 20 mg/kg iv weekly, 6 doses) is on record?
**A.** not very effective

**Q.** And the “Tumor growth in DLD-1 model, single agent (Example 14)” value (DLD-1 tumor cells; antibodies 20 mg/kg iv weekly)?
**A.** partial tumor growth inhibition

**Q.** What about the “Tumor growth in Hep3B2.1-7 model, single agent” value (Hep3B2.1-7 tumor cells) of the same compound?
**A.** slowed tumor growth but did not inhibit it
